Data published in patent publication US7759504B2, “Triarylamine derivative” (Fujifilm Corporation, priority 2007, dated 2010).

Columns and labels:
Assay type in all cases: physicochemical
[1] = Heat resistance of PMMA film sample (colorant residual rate); details: 80° C. for 400 hours; 5% by weight in PMMA film; absorbance at maximum absorption wavelength after/before treatment
Method: (§1) Into 25 ml of dichloromethane were dissolved 2.5 g of PMMA, and 0.125 g of the triarylamine derivative, and the solution was coated on a 100 μm-thick PET film. This was dried at 80° C. for 2 hours under reduced pressure to prepare a sample for assessment having a thickness of from 2 to 3 μm. The sample for assessment contained the triarylamine derivative at 5% by weight based on PMMA.
(§2) The sample for assessment obtained above was heat-treated at 80° C. for 400 hours. The absorbance of the assessment sample at the maximum absorption wavelength of the triarylamine derivative (colorant) was measured, and a colorant residual rate (%) was obtained as a ratio of the absorbance after heat treatment relative to the absorbance before heat treatment.

[2] = Light resistance of PMMA film sample (colorant residual rate); details: 170 hours xenon lamp (170 thousands lux, UV cut filter); 5% by weight in PMMA film; absorbance after/before treatment
Method: as §1
as §2, with “irradiation-treated” for “heat-treated at 80° C.”, “170 hours with a xenon lamp (170 thousands lux, using an UV cut filter).” for “400 hours.”, “irradiation” for “heat”

[3] = Wet heat resistance of PMMA film sample (colorant residual rate); details: 60° C. and relative humidity of 90% for 200 hours; 5% by weight in PMMA film; absorbance after/before treatment
Method: as §1
as §2, with “subjected to wet heat treatment” for “heat-treated”, “60°” for “80°”, “C. and a relative humidity of 90%” for “C.”, “200” for “400”, “after wet” for “after”, “before wet” for “before”

[4] = Solubility in 2-butanone (MEK)

| Heat Resistance (colorant residual rate) [1] | Light Resistance (colorant residual rate) [2] | Wet Heat Resistance (colorant residual rate) [3] | Solubility (w/v) [4] | SMILES |
| --- | --- | --- | --- | --- |
| 80% | 98% | 45% | 16% w/v % | CCCCN(CCCC)c1ccc([N+](=C2C=CC(=[N+](CCCC)CCCC)C=C2)c2ccc(N(CCCC)CCCC)cc2)cc1 [Comparative Example, reference compound] |
| 82% | 98% | 48% | 23% w/v % | CCCCN(CCCC)c1ccc([N+](=C2C=CC(=[N+](CCCC)CCCC)C=C2C)c2ccc(N(CCCC)CCCC)cc2)cc1 [Compound 28] |
| 87% | 99% | 89% | 32% w/v % | CCCCN(CCCC)c1ccc([N+](=C2C=CC(=[N+](CCCC)CCCC)C=C2C)c2ccc(N(CCCC)CCCC)cc2)cc1 [Compound 79] |
